Experimental data taken from patent US7709526B2, “Use of cyclolignans and new cyclolignans” (Biovitrum AB, priority 2001, dated 2010).

Tests used:
[1] = test system: cells devoid of insulin-like growth factor-1 receptors; assay: Cell death in cells devoid of IGF-1R; assay type: cell-based
[2] = test system: K562/S chronic myeloid leukemia cells; assay: Viability of leukemia cells, K562/S; assay type: cell-based, human; details: Homo sapiens, 72 h, read-out: IC50 for viability of leukemia cell lines
Protocol: (§1) The human chronic myeloid leukemia K562/S and K562/Vcr30 lines and the acute myeloid leukemia cell lines HL60/0 and HL60/Nov were obtained from ATCC. The K562/S and HL60/0 are wild type (non-resistant) cells, whereas K562/Vcr30 and HL60/Nov are cytostatic-resistant sublines. All leukemia cell lines were cultured in RPMI 1640 medium supplemented with 10% fetal bovine serum and with 2 mM glutamine, 1% benzyl-penicillin and streptomycin. The cells were grown in tissue culture flasks maintained at 95% air/5% CO2 atmosphere at 37° C. in a humidified incubator. For the experiments 25,000 cells were cultured in 60-mm plastic dishes or 96-well plastic plates. The experiments on leukemia cells were performed in collaboration with Associate professor Sigurd Vitols, Department of Pharmacology, Karolinska Hospital (Stockholm, Sweden).
(§2) Cell proliferation kit II (Roche Inc.) is based on calorimetric change of the yellow tetrazolium salt XTT in orange formazan dye by the respiratory chain of viable cells (Roehm, N W, et al., J Immunol Methods 142:257-265, 1991). Cells seeded at a concentration of 5000/well in 100 μl medium in a 96-well plate were treated with different drugs in the given concentration. After 24 or 48 h the cells were incubated, according to the manufacturer's protocol, with XTT labelling mixture. After 4 h the formazan dye is quantified using a scanning multiwell spectrophotometer with a 495-nm filter. The absorbance is directly correlated with number of viable cells. The standard absorbance curve was drawn by means of untreated cells seeded at a concentration of from 1000 to 10 000 cells/well with an increasing rate of 1000 cells/well. All standards and experiments were performed in triplicates.
(§3) The leukemia cell lines K562/S, K562/Vcr 30, HL60/0 and HL60/Nov were proven to express the IGF-1R. This was assayed by Western blotting analysis, as described in Methods and Experiment 1 and 2. The 4 leukemia cell lines were seeded in 96-well plates (medium volume in a well was 100 μl), in RPMI40 medium supplemented with fetal calf serum. After 24 h podophyllotoxin, deoxypodophyllotoxin and other derivatives were added at different concentrations for 72 h. Cell viability was then assayed (see above). IC50 values for each inhibitor and cell lines are shown below (Table 5). The results are based on 3 different experiments.

[3] = biological target: IGF-1R (Homo sapiens, UniProt P08069); assay: IGF-1R phosphorylation/autophosphorylation in intact FM55 melanoma cells (immunoprecipitation, Western blotting, OD); assay type: cell-based; parameters: The cells were then isolated and subjected to immuno-precipitation of the IGF-1R; endogenous in cells; host or cells: FM55 melanoma cells; details: for Level of IGF-1R phosphorylation in intact cells: OD, control cells = 100%
Chain of IGF-1R (P08069 31-1367): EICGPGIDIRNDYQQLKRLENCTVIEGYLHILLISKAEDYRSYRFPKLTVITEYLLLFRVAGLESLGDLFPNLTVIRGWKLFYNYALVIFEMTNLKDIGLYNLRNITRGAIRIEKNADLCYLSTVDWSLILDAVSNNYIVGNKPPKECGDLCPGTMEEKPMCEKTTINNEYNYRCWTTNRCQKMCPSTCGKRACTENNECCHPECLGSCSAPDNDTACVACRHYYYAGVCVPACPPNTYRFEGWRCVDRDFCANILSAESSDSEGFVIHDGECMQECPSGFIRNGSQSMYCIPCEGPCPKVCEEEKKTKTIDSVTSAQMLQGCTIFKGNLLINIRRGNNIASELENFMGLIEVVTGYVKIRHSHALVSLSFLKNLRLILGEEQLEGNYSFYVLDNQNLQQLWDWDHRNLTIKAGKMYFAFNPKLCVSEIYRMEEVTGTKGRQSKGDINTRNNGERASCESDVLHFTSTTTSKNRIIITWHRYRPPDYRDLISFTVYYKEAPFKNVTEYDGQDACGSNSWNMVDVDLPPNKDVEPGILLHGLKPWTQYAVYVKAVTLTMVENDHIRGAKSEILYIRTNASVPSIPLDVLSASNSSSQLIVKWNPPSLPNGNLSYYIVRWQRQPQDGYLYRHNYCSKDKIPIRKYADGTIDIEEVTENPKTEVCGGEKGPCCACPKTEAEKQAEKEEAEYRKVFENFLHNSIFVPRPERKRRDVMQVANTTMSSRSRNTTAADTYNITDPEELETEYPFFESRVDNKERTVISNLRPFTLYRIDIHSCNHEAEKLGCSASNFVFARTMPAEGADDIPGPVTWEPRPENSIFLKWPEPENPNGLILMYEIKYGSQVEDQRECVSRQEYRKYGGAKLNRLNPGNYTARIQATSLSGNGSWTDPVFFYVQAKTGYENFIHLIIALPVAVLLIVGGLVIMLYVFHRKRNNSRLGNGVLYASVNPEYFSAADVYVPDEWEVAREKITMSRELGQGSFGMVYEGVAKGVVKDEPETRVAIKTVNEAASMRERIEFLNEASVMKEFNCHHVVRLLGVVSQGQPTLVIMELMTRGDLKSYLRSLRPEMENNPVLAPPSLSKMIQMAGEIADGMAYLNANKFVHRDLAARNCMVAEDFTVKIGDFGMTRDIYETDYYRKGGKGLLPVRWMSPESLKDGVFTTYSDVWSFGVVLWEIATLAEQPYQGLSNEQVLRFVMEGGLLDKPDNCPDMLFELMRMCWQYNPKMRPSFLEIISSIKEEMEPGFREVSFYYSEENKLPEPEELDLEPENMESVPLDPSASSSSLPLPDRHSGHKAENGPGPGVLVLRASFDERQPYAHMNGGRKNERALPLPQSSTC
Protocol: The isolated cells were lyzed in 10 ml ice-cold PBSTDS containing protease inhibitors (Carlberg, M., et al., J Biol Chem 271:17453-17462, 1996). 50 μl protein A or G agarose was added in 1 ml sample and incubated for 15 min at 4° C. on an orbital shaker. After centrifugation for 10 min at 10,000 r/min at 4° C. the supernatant was saved. The protein content was determined by a dye-binding assay with a reagent purchased from Bio-Rad. Bovine serum albumin was used as a standard. 15 μl Protein G Plus agarose and 5 μl anti-IGF-1R were added. After a 3 h incubation at 4° C. on an orbital shaker the precipitate was collected by pulse centrifugation in a micro centrifuge at 14,000×g for 10 s. The supernatant was discarded and the pellet was washed 3 times with PBSTDS.
Protein samples were solved in a 2×-sample buffer containing Laemmli buffer and 0.5% […] and boiled for 5 min at 96° C. Samples were separated by SDS-PAGE with a 4% stacking gel and 7.5% separation gel. Molecular weight markers (Bio Rad, Sweden) were run simultaneously in all experiments.
Following SDS-PAGE the proteins were transferred overnight to nitro-cellulose membranes (Hybond, Amersham, UK) and then blocked for 1 h at room temperature in a solution of 4% skimmed milk powder and 0.02% Tween 20 in PBS, pH 7.5. Incubations with the primary antibodies were performed for 1 h at room temperature, followed by 3 washes with PBS with Tween and incubation with the second antibody for 1 h room temperature. After another 3 washes the membranes were incubated with Streptavidin-labelled horseradish peroxidase for 30 min and then detected using Amersham ECL system (Amersham, UK) The films were scanned by Fluor-S (BioRad).
Melanoma cells (line FM55) were seeded in 6-cm dishes, at a concentration of 10,000 cells/cm^2 in Minimal Essential Medium supplemented with 10% fetal calf serum (FCS). […] Treatment with 0 μM represents untreated controls. The cells were then isolated and subjected to immuno-precipitation of the IGF-1R. The immunoprecipitates, containing purified IGF-1R, were fractionated by gel electrophoresis. Phosphorylation of IGF-1R was detected by an anti-phosphotyrosine antibody using Western blotting. The obtained signals represent phosphorylated IGF-1R and the intensity of signals represents amounts of phosphorylated IGF-1R. Details of the methods used are described above. The intensities are quantified by a scanner, which measures the optical density (OD) of the signals. For the control cells the OD is set at 100%. The blank (OD 0%) represents the background. The results given in Table 1 below are mean values of 3 experiments.
FM 55 melanoma cells were cultured in the same way as described in Experiment 1. When reaching a density of 65,000 cells/cm^2 in the dishes, they were treated for 1 h with 0.05 μM podophyllotoxin, deoxypodophyllotoxin, acetylpodophyllotoxin, epipodophyllotoxin, 4′-demethyl-podophyllotoxin and podophyllotoxone. The cells were then harvested for assay and quantification of IGF-1R autophosphorylation as described above. The values shown in Table 2 represent means of 3 experiments.

[4] = test system: K562/Vcr30 chronic myeloid leukemia cells (cytostatic-resistant); assay: Viability of leukemia cells, K562/Vcr30; assay type: cell-based, human; details: Homo sapiens; K562/Vcr30, 72 h; read-out: IC50 for viability of leukemia cell lines
Protocol: as §1, §2, §3

[5] = test system: SK-MEL-28 melanoma cells; assay: Cell viability (XTT), SK-MEL-28; assay type: cell-based, human; details: Homo sapiens, 48 h
Protocol: as §2
5 different types of cell lines were seeded in 96-well plates (medium volume in a well was 100 μl), at a concentration of 10,000 cells/cm^2 in Minimal Essential Medium supplemented with fetal calf serum. When the cells had reached a concentration of 65,000 cells/cm^2, they were treated with different doses of podophyllotoxin and deoxypodophyllotoxin for 48 h. Cell viability was then assayed (see above). […]

COc1cc([C@@H]2c3cc4c(cc3[C@H](O)[C@H]3COC(=O)[C@H]23)OCO4)cc(OC)c1OC [Podophyllotoxin, podophyllotoxin]
response of cells devoid of IGF-1R (in words) [1]: resistant
IC50 [2]: 4 nM
inhibition of IGF-1R phosphorylation (in words) ([3]; FM55 cells, 0.05 μM, 1 h): potent inhibitors
Inhibitory effect on IGF-1R autophosphorylation in intact cells in relation to podophyllotoxin, Relative potency ([3]; FM55 cells, 0.05 μM, 1 h, podophyllotoxin = 1, mean of 3): 1
Level of IGF-1R phosphorylation in intact cells ([3]; FM55 cells, 1 μM, 1 h, mean of 3): 8%
Level of IGF-1R phosphorylation in intact cells ([3]; FM55 cells, 15 μM, 1 h, mean of 3): 4%
Level of IGF-1R phosphorylation in intact cells ([3]; FM55 cells, 60 μM, 1 h, mean of 3): 2%
effect on IGF-1R phosphorylation (in words) ([3]; FM55 cells, 1, 15, 60 μM, genistein statement at 60 μM): almost completely blocks
concentration sufficient to inactivate the IGF-1R, fold lower than for the anti-microtubule effect ([3]; compared to anti-microtubule effect): 100 fold
IC50 [4]: 7 nM
IC50 [5]: 50 nM
